test system: BaF3-FL KIT D816V or BaF3-FL KIT V560G/D816V cell line; test: Cell-based assays of c-Kit mutant kinase activity (cell growth, ATPlite); conditions: at least one of the c-kit cell assays of Example 26
Procedure, shortened: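 IC50 derived from ATP-content luminescence (ATPlite) after three-day compound exposure at 37° C., 5% CO2. Cells: BaF3 rendered growth-dependent on full-length human KIT D816V or V560G/D816V, 1×10^4 per well, RPMI plus 10% FBS; 8 points, 1:3 steps, maximum 10 μM final, 0.2% DMSO.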

Compound | IC50 [µM]
COc1ccccc1-c1cc2cc(NC(=O)c3[nH]nc(C)c3C)cnc2[nH]1 [P-2135, N-[2-(2-methoxyphenyl)-1H-pyrrolo[2,3-b]pyridin-5-yl]-3,4-dimethyl-1H-pyrazole-5-carboxamide] | < 10
CCOC(=O)CCNC(=O)Nc1cnc2[nH]c(-c3ccccc3)cc2c1 [P-2006] | < 10
Cc1n[nH]c(C(=O)Nc2cnc3[nH]c(-c4cnn(C)c4C)cc3c2)c1C [P-2084, N-[2-(1,5-dimethylpyrazol-4-yl)-1H-pyrrolo[2,3-b]pyridin-5-yl]-3,4-dimethyl-1H-pyrazole-5-carboxamide] | < 10
CCOc1cc(-c2cc3cc(NC(=O)c4n[nH]c(C)c4C)cnc3[nH]2)ccn1 [P-2247, N-(2-(2-ethoxypyridin-4-yl)-1H-pyrrolo[2,3-b]pyridin-5-yl)-4,5-dimethyl-1H-pyrazole-3-carboxamide] | < 10
O=C(Nc1cnc2[nH]c(-c3ccccc3)cc2c1)c1cccc2[nH]ccc12 [P-2299, N-(2-phenyl-1H-pyrrolo[2,3-b]pyridin-5-yl)-1H-indole-4-carboxamide] | < 10
Cc1[nH]nc(C(=O)Nc2cnc3[nH]c(-c4ccnc(F)c4)cc3c2)c1C [P-2245, N-(2-(2-fluoropyridin-4-yl)-1H-pyrrolo[2,3-b]pyridin-5-yl)-4,5-dimethyl-1H-pyrazole-3-carboxamide] | < 10
Cc1n[nH]c(C(=O)Nc2cnc3[nH]c(-c4ccc(F)cc4)cc3c2)n1 [P-2131, N-[2-(4-fluorophenyl)-1H-pyrrolo[2,3-b]pyridin-5-yl]-3-methyl-1H-1,2,4-triazole-5-carboxamide] | < 10
CCOc1ncccc1-c1cc2cc(NC(=O)c3n[nH]c(C)c3C)cnc2[nH]1 [P-2239, N-(2-(2-ethoxypyridin-3-yl)-1H-pyrrolo[2,3-b]pyridin-5-yl)-4,5-dimethyl-1H-pyrazole-3-carboxamide] | < 10
Cc1n[nH]c(C(=O)Nc2cnc3[nH]c(-c4cnn(C5CCN(C(=O)OC(C)(C)C)CC5)c4)cc3c2)c1C [P-2306, tert-butyl 4-[4-[5-[(3,4-dimethyl-1H-pyrazole-5-carbonyl)amino]-1H-pyrrolo[2,3-b]pyridin-2-yl]pyrazol-1-yl]piperidine-1-carboxylate] | < 10
Cc1n[nH]c(C(=O)Nc2cnc3[nH]c(-c4ccc(NS(C)(=O)=O)cc4)cc3c2)c1C [P-2111, N-[2-[4-(methanesulfonamido)phenyl]-1H-pyrrolo[2,3-b]pyridin-5-yl]-3,4-dimethyl-1H-pyrazole-5-carboxamide] | < 10
Cc1cc(F)ccc1-c1cc2cc(NC(=O)c3n[nH]c(C)c3C)cnc2[nH]1 [P-2259, N-(2-(4-fluoro-2-methylphenyl)-1H-pyrrolo[2,3-b]pyridin-5-yl)-4,5-dimethyl-1H-pyrazole-3-carboxamide] | < 10
Cc1[nH]nc(C(=O)Nc2cnc3[nH]c(-c4ccnc(C(=O)N(C)C)c4)cc3c2)c1C [P-2224, 4-(5-(4,5-dimethyl-1H-pyrazole-3-carboxamido)-1H-pyrrolo[2,3-b]pyridin-2-yl)-N,N-dimethylpicolinamide] | < 10
CC(=O)Nc1ccc(-c2cc3cc(NC(=O)c4[nH]nc(C)c4C)cnc3[nH]2)cn1 [P-2133, N-[2-(6-acetamido-3-pyridyl)-1H-pyrrolo[2,3-b]pyridin-5-yl]-3,4-dimethyl-1H-pyrazole-5-carboxamide] | < 10
Cc1n[nH]c(CNc2cnc3[nH]c(-c4ccc(F)cc4)cc3c2)c1Cl [P-2141, N-[(4-chloro-5-methyl-1H-pyrazol-3-yl)methyl]-2-(4-fluorophenyl)-1H-pyrrolo[2,3-b]pyridin-5-amine] | < 10
CCc1cncc(-c2cc3cc(NC(=O)c4n[nH]c(C)c4C)cnc3[nH]2)c1 [P-2256, N-(2-(5-ethylpyridin-3-yl)-1H-pyrrolo[2,3-b]pyridin-5-yl)-4,5-dimethyl-1H-pyrazole-3-carboxamide] | < 10
CC(=O)N1CCC(n2ncc(-c3cc4cc(NC(=O)c5n[nH]c(C)c5C)cnc4[nH]3)c2C)CC1 [P-2199, N-(2-(1-(1-acetylpiperidin-4-yl)-5-methyl-1H-pyrazol-4-yl)-1H-pyrrolo[2,3-b]pyridin-5-yl)-4,5-dimethyl-1H-pyrazole-3-carboxamide] | < 10
Cc1ccccc1-c1cc2cc(NC(=O)c3[nH]nc(C)c3C)cnc2[nH]1 [P-2097, 3,4-dimethyl-N-[2-(o-tolyl)-1H-pyrrolo[2,3-b]pyridin-5-yl]-1H-pyrazole-5-carboxamide] | < 10

Continued, values first:

IC50 [µM] | Compound
< 10 | COCCNC(=O)c1cc(-c2cc3cc(NC(=O)c4n[nH]c(C)c4C)cnc3[nH]2)ccn1 [P-2220, 4-(5-(4,5-dimethyl-1H-pyrazole-3-carboxamido)-1H-pyrrolo[2,3-b]pyridin-2-yl)-N-(2-methoxyethyl)picolinamide]
< 10 | Cc1n[nH]c(C(=O)Nc2cnc3[nH]c(-c4ccc(C(=O)N(C)C)cc4)cc3c2)c1C [P-2085, N-[2-[4-(dimethylcarbamoyl)phenyl]-1H-pyrrolo[2,3-b]pyridin-5-yl]-3,4-dimethyl-1H-pyrazole-5-carboxamide]
< 10 | Cc1[nH]nc(C(=O)Nc2cnc3[nH]c(-c4ccnc(N5CCC(C)CC5)c4)cc3c2)c1C [P-2210, 4,5-dimethyl-N-(2-(2-(4-methylpiperidin-1-yl)pyridin-4-yl)-1H-pyrrolo[2,3-b]pyridin-5-yl)-1H-pyrazole-3-carboxamide]
< 10 | Cc1ncc(-c2cc3cc(NC(=O)c4[nH]nc(C)c4C)cnc3[nH]2)s1 [P-2091, 3,4-dimethyl-N-[2-(2-methylthiazol-5-yl)-1H-pyrrolo[2,3-b]pyridin-5-yl]-1H-pyrazole-5-carboxamide]
< 10 | CONC(=O)c1cc(-c2cc3cc(NC(=O)c4n[nH]c(C)c4C)cnc3[nH]2)ccn1 [P-2223, 4-(5-(4,5-dimethyl-1H-pyrazole-3-carboxamido)-1H-pyrrolo[2,3-b]pyridin-2-yl)-N-methoxypicolinamide]
< 10 | Cc1cccc(-c2cc3cc(NC(=O)c4[nH]nc(C)c4C)cnc3[nH]2)c1 [P-2130, 3,4-dimethyl-N-[2-(m-tolyl)-1H-pyrrolo[2,3-b]pyridin-5-yl]-1H-pyrazole-5-carboxamide]
< 10 | Cc1[nH]nc(C(=O)Nc2cnc3[nH]c(-c4cncc(C(F)(F)F)c4)cc3c2)c1C [P-2254, 4,5-dimethyl-N-(2-(5-(trifluoromethyl)pyridin-3-yl)-1H-pyrrolo[2,3-b]pyridin-5-yl)-1H-pyrazole-3-carboxamide]
< 10 | Cc1n[nH]c(C(=O)Nc2cnc3[nH]c(-c4ccc(P(C)(C)=O)cc4)cc3c2)c1C [P-2127, N-[2-(4-dimethylphosphorylphenyl)-1H-pyrrolo[2,3-b]pyridin-5-yl]-3,4-dimethyl-1H-pyrazole-5-carboxamide]
< 10 | Cc1[nH]nc(C(=O)Nc2cnc3[nH]c(-c4ccnc(N5CCCCC5)c4)cc3c2)c1C [P-2209, 4,5-dimethyl-N-(2-(2-(piperidin-1-yl)pyridin-4-yl)-1H-pyrrolo[2,3-b]pyridin-5-yl)-1H-pyrazole-3-carboxamide]
< 10 | O=C(O)c1ccc(C(=O)Nc2cnc3[nH]c(-c4ccccc4)cc3c2)cc1 [P-2303, 4-[(2-phenyl-1H-pyrrolo[2,3-b]pyridin-5-yl)carbamoyl]benzoic acid]
< 10 | Cc1[nH]nc(C(=O)Nc2cnc3[nH]c(C4=CCOCC4)cc3c2)c1C [P-2265, N-(2-(3,6-dihydro-2H-pyran-4-yl)-1H-pyrrolo[2,3-b]pyridin-5-yl)-4,5-dimethyl-1H-pyrazole-3-carboxamide]
< 10 | Cc1n[nH]c(C(=O)Nc2cnc3[nH]c(C4=CCCCC4)cc3c2)c1C [P-2307, N-[2-(cyclohexen-1-yl)-1H-pyrrolo[2,3-b]pyridin-5-yl]-3,4-dimethyl-1H-pyrazole-5-carboxamide]
< 10 | COc1ccc(-c2cc3cc(NC(=O)c4[nH]nc(C)c4C)cnc3[nH]2)cn1 [P-2090, N-[2-(6-methoxy-3-pyridyl)-1H-pyrrolo[2,3-b]pyridin-5-yl]-3,4-dimethyl-1H-pyrazole-5-carboxamide]
< 10 | Cc1n[nH]c(C(=O)Nc2cnc3[nH]c(-c4cccc(C(=O)N(C)C)c4)cc3c2)c1C [P-2087, N-[2-[3-(dimethylcarbamoyl)phenyl]-1H-pyrrolo[2,3-b]pyridin-5-yl]-3,4-dimethyl-1H-pyrazole-5-carboxamide]
< 10 | Cc1[nH]nc(C(=O)Nc2cnc3[nH]c(-c4ccnc(C(=O)N5CCOCC5)c4)cc3c2)c1C [P-2216, 4,5-dimethyl-N-(2-(2-(morpholine-4-carbonyl)pyridin-4-yl)-1H-pyrrolo[2,3-b]pyridin-5-yl)-1H-pyrazole-3-carboxamide]
< 10 | COc1cccc(-c2cc3cc(NC(=O)c4[nH]nc(C)c4C)cnc3[nH]2)c1F [P-2129, N-[2-(2-fluoro-3-methoxy-phenyl)-1H-pyrrolo[2,3-b]pyridin-5-yl]-3,4-dimethyl-1H-pyrazole-5-carboxamide]
< 10 | Cn1ncc2c(C(=O)Nc3cnc4[nH]c(-c5ccccc5)cc4c3)cccc21 [P-2298, 1-methyl-N-(2-phenyl-1H-pyrrolo[2,3-b]pyridin-5-yl)indazole-4-carboxamide]
< 10 | CC(C)=CC(=O)N1CCN(c2cc(-c3cc4cc(NC(=O)c5n[nH]c(C)c5C)cnc4[nH]3)ccn2)CC1 [P-2215, 4,5-dimethyl-N-(2-(2-(4-(3-methylbut-2-enoyl)piperazin-1-yl)pyridin-4-yl)-1H-pyrrolo[2,3-b]pyridin-5-yl)-1H-pyrazole-3-carboxamide]
< 10 | Cc1n[nH]c(C(=O)Nc2cnc3[nH]c(-c4ccccc4Cl)cc3c2)c1C [P-2096, N-[2-(2-chlorophenyl)-1H-pyrrolo[2,3-b]pyridin-5-yl]-3,4-dimethyl-1H-pyrazole-5-carboxamide]
< 10 | Cc1[nH]nc(C(=O)Nc2cnc3[nH]c(-c4cnn(C5COC5)c4C)cc3c2)c1C [P-2196, 4,5-dimethyl-N-(2-(5-methyl-1-(oxetan-3-yl)-1H-pyrazol-4-yl)-1H-pyrrolo[2,3-b]pyridin-5-yl)-1H-pyrazole-3-carboxamide]
